Test [1] concerns the target one or more of HDAC-1, HDAC-2, HDAC-3, HDAC-4, HDAC-5, HDAC-6, HDAC-7, HDAC-8, HDAC-9, HDAC-10 and HDAC-11. Briefly: Inhibition of Histone Deacetylase Enzymatic Activity (Boc-Lys(Ac)-AMC substrate, Fluor-de-Lys developer). The format is biochemical. The conditions noted are these: read-out: HDAC Inhibition (IC50 μM) HDAC Enzyme. As for the experimental part: The following protocol is used to assay the compounds of the disclosure.
The mixture is pre-incubated for 5 minutes at room temperature. The reaction is started by bringing the temperature to 37° C. and adding 16 μl substrate. Total reaction volume is 50 μl.
In the Tables 8, 9 and 10, A≦0.05 μM; 0.05 μM<B≦0.1 μM; 0.1 μM<C≦1 μM; and 1 μM<D≦10 μM.

Test [2] concerns HDAC activity in primary mouse cortical cultures. Briefly: Whole-Cell Histone Deacetylase (HDAC) Inhibition Assay in Primary Mouse Cortical Cultures. The test is classed as cell-based. The settings on record: whole-cell (WC), mouse cortical neurons, read-out: HDAC Inhibition (IC50 μM) WC mouse cortical neurons. The protocol: Primary neocortical cultures are established through the dissection of the neocortex from E17 embryos harvested from time-pregnant Balb/C mice. Following dissection, the neocortical tissue specimens undergo digestion by incubation at 37° C. for 10 minutes in dissection medium (1×HBSS/10 mM HEPES/1 mM Sodium Pyruvate) supplemented with (0.25%) Trypsin and (0.1%) DNase I. Digested tissue is washed and resuspended in plating medium (NeuroBasal/10% HS/0.5 mM L-Glutamine (Invitrogen Corporation)) for trituration. Additional plating medium is added, and the contents are passed over a 70 um cell-strainer. The cell-density is quantified using a hemacytometer, and dilutions are made to allow for the plating of 50000 cells/well/100 uL in 96-well PDL-coated plates. Plates are incubated for 4-5 hours in 37° C./5% CO2-incubator, after which time the entire volume is exchanged to feeding medium (NeuroBasal/2% B-27 Serum-free supplement/0.5 mM L-Glutamine/1% Penicillin-Streptomycin (Invitrogen Corporation)). The cultures undergo two 50% fresh feeding medium exchanges at 3 days in vitro (DIV3), and again at DIV7.
Compounds for testing are resuspended in dimethyl sulphoxide (DMSO), and further diluted in DMSO for a ten-point dose-response curve, with appropriate controls. Each master plate is assayed in triplicate. […] Three DIV9 culture plates are leveled to 50 uL/well, onto which each has overlaid 50 uL/well of the diluted daughter plate. The plates are returned to the 37° C./5% CO2-incubator for 16-18 hours.
The next step of the assay involves the exposure of a HDAC colorimetric substrate, comprising an acetylated lysine side chain, to the compound-treated neuronal cultures. Based on the ability of the compound to inhibit HDAC activity in the neuronal cultures, the substrate is deacetylated by HDACs, and subsequently sensitized. […] Compound-incubated culture plates are again leveled to 50 uL/well and 2 uL/well of 7.5 mM BOC-Lys (Ac)-AMC substrate is added and thoroughly mixed. Plates are returned to the 37° C./5% CO2-incubator for 1 hour.
The final addition to the culture plates entails treatment with a Fluor de Lys™-based developer (BIOMOL Research Laboratories, Inc.) to produce a fluorophore, which is analyzed using a spectrophotometer. The developer solution (1×Fluor de Lys™/1% NP-40/1 uM TSA in HDAC Buffer Solution) is prepared, and 50 uL/well is added to each of the wells of the culture plates. […] The plates are returned to the 37° C./5% CO2-incubator for 10-15 minutes, after which time, they are removed and set in the dark at room temperature for 5-10 minutes.
Primary neocortical cultures were established through the dissection of the neocortex from E17 embryos harvested from time-pregnant Balb/C mice. Following dissection, the neocortical tissue specimens underwent digestion by incubation at 37° C. for 10 minutes in dissection medium (1×HBSS/10 mM HEPES/1 mM Sodium Pyruvate) supplemented with (0.25%) Trypsin and (0.1%) DNase I. Digested tissue was washed and resuspended in plating medium (NeuroBasal/10% HS/0.5 mM L-Glutamine (Invitrogen Corporation)) for trituration. Additional plating medium was added, and the contents passed over a 70 um cell-strainer. The cell-density was quantified using a hemacytometer, and dilutions made to allow for the plating of 50000 cells/well/100 uL in 96-well PDL-coated plates. Plates were incubated for 4-5 hours in 37° C./5% CO2-incubator, after which time the entire volume was exchanged to feeding medium (NeuroBasal/2% B-27 Serum-free supplement/0.5 mM L-Glutamine/l % Penicillin-Streptomycin (Invitrogen Corporation)). The cultures underwent two 50% fresh feeding medium exchanges at 3 days in vitro (DIV3), and again at DIV7.
Compounds for testing were resuspended in dimethyl sulphoxide (DMSO), and further diluted in DMSO for a ten-point dose-response curve, with appropriate controls. Each master plate was assayed in triplicate.

Read-outs that look alike come from different tables or passages of the source.

For `O=C(NO)c1cnc(NC2c3ccccc3C=C(F)c3ccccc32)nc1` (stereo not shown), the 50% inhibitory concentration (IC50) (commonly the concentration at which inhibition is half-maximal) was less than 0.05 µM in test [1] (Table 10) and less than 1 µM in test [2] (Table 10). On the same counts, the results for `O=C(NO)c1ccc(CNC2c3ccccc3CCc3ccccc32)cc1` are less than 0.05 µM and 5 to 15 µM. As to `O=C(NO)c1ccc(C2=Nc3ccccc3Oc3cc(N4CCOCC4)ccc32)cc1` [(Z)—N-hydroxy-4-(3-morpholinodibenzo[b,f][1,4]oxazepin-11-yl)benzamide], the 50% inhibitory concentration (IC50) in test [1] (Table 8) lay in the range of 0.1 to 1 µM; in test [2] (Table 8) it was 5 to 15 µM. As to `Cc1cccc(N2C[C@@H]3C[C@H]2CN3c2ncc(C(=O)NO)cn2)c1` [N-hydroxy-2-((1S,4S)-5-m-tolyl-2,5-diazabicyclo[2.2.1]heptan-2-yl)pyrimidine-5-carboxamide], the half-inhibitory concentration (IC50) is less than 0.05 µM in test [1] (Table 9) and less than 1 µM in test [2] (Table 9). For `O=C(NO)c1cnc(N2C[C@@H]3C[C@H]2CN3c2cc(C(F)(F)F)cc(C(F)(F)F)c2)nc1` [2-((1S,4S)-5-(3,5-bis(trifluoromethyl)phenyl)-2,5-diazabicyclo[2.2.1]heptan-2-yl)-N-hydroxypyrimidine-5-carboxamide] the same measures were less than 0.05 µM and 1 to 5 µM.

Consider `O=C(NO)c1ccc(NC2c3ccccc3CCc3ccccc32)nc1`, for which the half-inhibitory concentration (IC50) in test [1] (Table 10) is less than 0.05 µM; in test [2] (Table 10), less than 1 µM. As to `COCCOc1cccc2c1Oc1ccccc1N=C2c1ccc(C(=O)NO)cc1` [(Z)—N-hydroxy-4-(4-(2-methoxyethoxy)dibenzo[b,f][1,4]oxazepin-11-yl)benzamide], the results for the 50% inhibitory concentration (IC50) in test [1] (Table 8) and in test [2] (Table 8) were less than 0.05 µM and 1 to 5 µM, respectively. On to `O=C(NO)c1cccc(OCCN2C(=O)c3ccccc3Oc3ccccc32)c1`, for which the values for the IC50 in test [1] (Table 10) and in test [2] (Table 10) were 0.1 to 1 µM and more than 15 µM, respectively. On the same counts, the results for `O=C(CCCCCCC(=O)N1Cc2ccccc2Oc2ccccc21)NO` [8-(dibenzo[b,f][1,4]oxazepin-10(11H)-yl)-N-hydroxy-8-oxooctanamide] are 0.1 to 1 µM and 1 to 5 µM.

On to `O=C(NO)c1cnc(N2C[C@@H]3C[C@H]2CN3c2cccc(C(F)(F)F)c2)s1` [N-hydroxy-2-((1S,4S)-5-(3-(trifluoromethyl)phenyl)-2,5-diazabicyclo[2.2.1]heptan-2-yl)thiazole-5-carboxamide], for which the values for the 50% inhibitory concentration (IC50) in test [1] (Table 9) and in test [2] (Table 9) were less than 0.05 µM and 1 to 5 µM, respectively. Consider `O=C(CCCN1c2ccccc2C=Cc2ccccc21)NO` [(Z)-4-(5H-dibenzo[b,f]azepin-5-yl)-N-hydroxybutanamide], for which the IC50 in test [1] (Table 10) is 1 to 10 µM; in test [2] (Table 10) it was 5 to 15 µM. Turning to `O=C(NO)c1ccc(C2=Nc3c(F)cccc3Oc3ccccc32)cc1` [(Z)-4-(9-fluorodibenzo[b,f][1,4]oxazepin-11-yl)-N-hydroxybenzamide], the IC50 in test [1] (Table 8) lay within 0.05 to 0.1 µM; in test [2] (Table 8), 1 to 5 µM. For `O=C(NO)c1ccc(C2=Nc3cc(C(F)(F)F)ccc3Oc3ccccc32)cc1` [(Z)—N-hydroxy-4-(8-(trifluoromethyl)dibenzo[b,f][1,4]oxazepin-11-yl)benzamide], the IC50 lay in the range of 0.1 to 1 µM in test [1] (Table 8) and 5 to 15 µM in test [2] (Table 8). On to `O=C(NO)c1ccc(N2C[C@@H]3C[C@H]2CN3c2nccc(C(F)(F)F)n2)cc1` [N-hydroxy-4-((1S,4S)-5-(4-(trifluoromethyl)pyrimidin-2-yl)-2,5-diazabicyclo[2.2.1]heptan-2-yl)benzamide], for which, in test [2] (Table 9), the half-maximal inhibitory concentration (IC50) is 1 to 5 µM. Regarding `O=C(NO)c1cnc(NC(c2ccccn2)c2ccccn2)nc1` [2-(dipyridin-2-ylmethylamino)-N-hydroxypyrimidine-5-carboxamide], in test [2] (Table 10), the IC50 was less than 1 µM. As to `O=C(NO)c1ccc(Cn2c(-c3ccccc3)cc3ccccc32)cc1` [N-hydroxy-4-((2-phenyl-1H-indol-1-yl)methyl)benzamide], the IC50 in test [1] (Table 10) lay within 0.1 to 1 µM. For `O=C(NO)c1cnc(N2C[C@H]3C[C@@]3(c3cccc(C(F)(F)F)c3)C2)nc1`, the IC50 in test [1] (Table 10) fell in the range of 0.1 to 1 µM. Turning to `CN1CCc2[nH]c3ccc(C(=O)NO)cc3c2C1` [N-hydroxy-2-methyl-2,3,4,5-tetrahydro-1H-pyrido[4,3-b]indole-8-carboxamide], the IC50 in test [1] (Table 10) lay in the range of 1 to 10 µM. For `O=C(NO)c1ccc2c(c1)N=C(c1ccncc1)c1ccccc1O2` [(Z)-N-hydroxy-11-(pyridin-4-yl)dibenzo[b,f][1,4]oxazepine-8-carboxamide], the IC50 in test [1] (Table 8) lay within 0.1 to 1 µM. For `O=C(NO)c1cnc(N2C[C@H]3C[C@@]3(c3ccc(C(F)(F)F)cc3)C2)nc1`, the IC50 in test [1] (Table 10) fell in the range of 0.1 to 1 µM. Regarding `O=C(NO)c1ccc(OCCN2C(=O)c3ccccc3Oc3ccccc32)cc1Cl`, the 50% inhibitory concentration (IC50) in test [1] (Table 10) was 1 to 10 µM. Same read-out and setting: the value for `O=C(NO)c1ccc(CNC(c2ccccc2)c2ccccc2)cc1` [4-((benzhydrylamino)methyl)-N-hydroxybenzamide] was less than 0.05 µM; that for `O=C(NO)c1cccc(CN2c3ccccc3Sc3ccccc32)c1` [3-((10H-phenothiazin-10-yl)methyl)-N-hydroxybenzamide] was 0.1 to 1 µM; that for `O=C(NO)c1cnc(N2C[C@H]3C[C@@]3(c3ccc(Cl)c(Cl)c3)C2)nc1` [2-((1R,5S)-1-(3,4-dichlorophenyl)-3-azabicyclo[3.1.0]hexan-3-yl)-N-hydroxypyrimidine-5-carboxamide] was 0.1 to 1 µM. As for `O=C(NO)c1ccc(C2=Nc3ccccc3N(CC3CC3)c3ncccc32)cc1` [(Z)-4-(11-(cyclopropylmethyl)-11H-benzo[b]pyrido[2,3-e][1,4]diazepin-5-yl)-N-hydroxybenzamide], in test [1] (Table 8), the IC50 fell in the range of 1 to 10 µM. Regarding `O=C(NO)c1ccc(CNC2c3ccccc3COc3ccccc32)cc1` (stereo not shown) [4-((6,11-dihydrodibenzo[b,e]oxepin-11-ylamino)methyl)-N-hydroxybenzamide], the IC50 in test [1] (Table 10) lay within 0.1 to 1 µM. In the case of `O=C(NO)c1cnc(N2C[C@@H]3C[C@H]2CN3C(=O)C2CCCCC2)nc1` [2-((1S,4S)-5-(cyclohexanecarbonyl)-2,5-diazabicyclo[2.2.1]heptan-2-yl)-N-hydroxypyrimidine-5-carboxamide], in test [2] (Table 9), the half-inhibitory concentration (IC50) lay within 1 to 5 µM. Turning to `O=C(NO)c1ccc(OCCN2C(=O)c3ccccc3Oc3ccccc32)cc1F`, in test [1] (Table 10), the 50% inhibitory concentration (IC50) lay in the range of 0.05 to 0.1 µM. Consider `O=C(C=C1c2ccccc2C=Cc2ccccc21)NO`, for which the half-maximal inhibitory concentration (IC50) in test [1] (Table 10) is 0.1 to 1 µM. Regarding `CN(C)CCOc1ccc2c(c1)C(c1ccc(C(=O)NO)cc1)=Nc1ccccc1O2` [(Z)-4-(2-(2-(dimethylamino)ethoxy)dibenzo[b,f][1,4]oxazepin-11-yl)-N-hydroxybenzamide], in test [2] (Table 8), the half-maximal inhibitory concentration (IC50) was more than 15 µM.

Regarding `O=C1CN=C(c2ccc(C(=O)NO)cc2)c2cc(Br)sc2N1` [(Z)-4-(7-bromo-2-oxo-2,3-dihydro-1H-thieno[2,3-e][1,4]diazepin-5-yl)-N-hydroxybenzamide], the IC50 in test [1] (Table 10) is 0.1 to 1 µM. The same measure, in the same setting: the value for `O=C(NO)c1cnc(NC(c2ccc(F)cc2)c2ccc(F)cc2)nc1` [2-(bis(4-fluorophenyl)methylamino)-N-hydroxypyrimidine-5-carboxamide] was less than 0.05 µM. With `O=C(NO)c1ccc(C2=Nc3ccccc3Sc3ccccc32)cc1` [(Z)-4-(dibenzo[b,f][1,4]thiazepin-11-yl)-N-hydroxybenzamide], the half-inhibitory concentration (IC50) in test [1] (Table 8) was 0.1 to 1 µM.
